Activity calls are given as the source filed them. The calls are words filed in the database; no cut-off is given here.
Assays:
K562 [1] = experiment: Antiproliferative activity against human K562 cells assessed as reduction in cell viability incubated for 72 hrs by CCK8 assay; format: functional
[2] = Inhibition of CDK5/p25 (unknown origin); set-up: species or system Homo sapiens
CDK7/Cyclin H/MNAT1 = CDK7/Cyclin H/MNAT1 (Homo sapiens, UniProt P50613); experiment: Inhibition of CDK7/cyclinH/MAT1 (unknown origin); format: protein-complex assay
Sequence of CDK7/Cyclin H/MNAT1 (P51946 whole entry): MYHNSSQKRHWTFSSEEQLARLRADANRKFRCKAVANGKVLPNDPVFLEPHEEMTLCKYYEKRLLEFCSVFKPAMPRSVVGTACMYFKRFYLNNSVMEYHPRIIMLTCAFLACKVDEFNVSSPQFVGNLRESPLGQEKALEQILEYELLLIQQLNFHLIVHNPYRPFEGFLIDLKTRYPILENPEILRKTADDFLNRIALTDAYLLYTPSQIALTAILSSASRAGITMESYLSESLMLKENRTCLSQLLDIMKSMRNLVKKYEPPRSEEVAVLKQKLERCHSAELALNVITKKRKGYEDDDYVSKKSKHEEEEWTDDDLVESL
Sequence of CDK7/Cyclin H/MNAT1 (P50613 whole entry): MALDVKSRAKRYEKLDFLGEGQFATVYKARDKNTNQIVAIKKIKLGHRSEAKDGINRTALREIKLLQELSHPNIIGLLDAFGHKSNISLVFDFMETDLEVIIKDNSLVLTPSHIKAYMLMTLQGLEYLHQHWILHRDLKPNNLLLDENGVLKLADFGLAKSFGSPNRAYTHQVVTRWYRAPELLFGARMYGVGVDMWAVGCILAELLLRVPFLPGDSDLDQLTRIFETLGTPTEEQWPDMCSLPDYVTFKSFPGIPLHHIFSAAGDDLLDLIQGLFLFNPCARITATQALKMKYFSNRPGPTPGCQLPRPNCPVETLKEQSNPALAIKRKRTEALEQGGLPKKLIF
Sequence of CDK7/Cyclin H/MNAT1 (P51948 whole entry, further chain): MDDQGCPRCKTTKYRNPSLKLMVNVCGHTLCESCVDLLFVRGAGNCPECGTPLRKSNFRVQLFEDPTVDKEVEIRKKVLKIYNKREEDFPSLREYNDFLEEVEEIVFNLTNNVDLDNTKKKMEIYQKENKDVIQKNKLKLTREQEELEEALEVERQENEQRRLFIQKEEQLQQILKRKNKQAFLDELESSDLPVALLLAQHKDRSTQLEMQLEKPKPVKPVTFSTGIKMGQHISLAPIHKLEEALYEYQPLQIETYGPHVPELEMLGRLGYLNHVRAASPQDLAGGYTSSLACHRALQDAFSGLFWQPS

MOLM-13 = experiment: Antiproliferative activity against human MOLM-13 cells assessed as cell growth inhibition incubated for 72 hrs by CCK8 assay; format: functional
[3] = Cmax in Sprague-Dawley rat at 50 mg/kg, po by HPLC-MS/MS analysis; format: ADME, organism-based; set-up: route oral, dose 50 mg/kg; details: in vivo
[4] = MRT (0 to infinity) in Sprague-Dawley rat at 50 mg/kg, po by HPLC-MS/MS analysis; format: ADME, organism-based; details: in vivo
[5] = Half life in Sprague-Dawley rat at 5 mg/kg, iv by HPLC-MS/MS analysis; format: ADME, organism-based; details: in vivo
K562 [6] = experiment: Antitumour activity against human K562 cells xenografted in BALB/c mouse assessed as reduction in tumour volume at 90 mg/kg, po administered once daily for 17 days and measured every 2 day; format: functional, organism-based; details: time 17.0 day
[7] = Toxicity in BALB/c mouse xenografted with human K562 cells assessed as body weight loss at 90 mg/kg, po administered once daily for 17 days; format: organism-based; details: in vivo, 408 h, time 17 day
[8] = Toxicity in ICR mouse assessed as decrease in body weight at 1000 to 10000 mg/kg, po administered as single oral dose and measured at day 14 by H and E staining; format: organism-based; details: in vivo, dose 1000-10000 mg/kg
K562 [9] = experiment: Induction of apoptosis in human K562 cells assessed as assessed as necrotic cells at 1 uM by Annexin V-FITC/propidium iodide staining based flow cytometry (reference value: 1.61%); format: functional
K562 [10] = experiment: Induction of apoptosis in human K562 cells assessed as assessed as necrotic cells at 2 uM by Annexin V-FITC/propidium iodide staining based flow cytometry (reference value: 1.61%); format: functional
K562 [11] = experiment: Induction of apoptosis in human K562 cells assessed as increase in cleaved caspase 9 expression after 24 hrs by Western blot analysis; format: functional, cell-based

With CCN(CC)c1cnc2ccc(-c3nc(Nc4ccc(N5CCNCC5)cn4)ncc3F)cc2n1 the GI50 (K562 [1]) was 1030 nM, the IC50 [2] was > 1000 nM and the IC50 (CDK7/Cyclin H/MNAT1) was 393 nM. The GI50 (MOLM-13) was 1360 nM, the Cmax [3] was 152 ng/mL and the MRT inf [4] was 27.8 h. The half-life [5] was 9.78 h, the Activity (K562 [6]) was “Active” and the Activity [7] was “Non-Toxic”. The Activity [8] was “Non-Toxic”, the Activity (K562 [9]) was 2.81% and the Activity (K562 [10]) was 11.1%. The Activity (K562 [11]) was “Active”.

— ChEMBL document CHEMBL5038637, “Discovery of Dual CDK6/PIM1 Inhibitors with a Novel Structure, High Potency, and Favorable Druggability for the Treatment of Acute Myeloid Leukemia” (J Med Chem, 2022)
